Data reported in PMC11947346, “Synthesis and preclinical evaluation of gastrin releasing peptide receptor antagonist [^18F]MeTz-PEG2-RM26 for positron emission tomography” (EJNMMI Radiopharmacy and Chemistry, 2025).

Assays:
[1] = molecular target: T1, GRPR (Homo sapiens, UniProt P30550); test: In vitro competitive binding assay against [^125I]I-Tyr^4-BBN; IC50 determination; details: PC-3 cells
T1 construct: investigated using GRPR-expressing PC-3 cells; endogenous in cells; host or cells: PC-3 cells
Method: The half maximal inhibitory concentration (IC50) was determined for F-MeTz-PEG2-RM2 (8b), Ga-loaded NOTA-PEG2-RM26 (Varasteh et al. [2013b], [2015]) conjugate was used as a comparator. […] Briefly, 10^5 cells were incubated the day before. […] After incubation, the cells were collected, and their activity was measured.

[2] = molecular target: T2, GRPR-expressing PC-3 cells (Homo sapiens, UniProt P30550); test: In vitro binding to GRPR with and without preblocking of GRPR; format: cell-based; details: 8–10 nM radioligand, 1 h at 37 °C, preblocking with 1 µM NOTA-PEG2-RM26 for 10 min at rt, n = 3, P < 0.0001
T2 construct: investigated using GRPR-expressing PC-3 cells; endogenous in cells; host or cells: PC-3 cells
Method: PC-3 cells (1 × 10^6 cells/well) were seeded on 6-well dishes one day before the experiment. On the day of the experiment, a set of wells was incubated with 1 µM/well of NOTA-PEG2-RM26 for 10 min at rt to block GRPR. After incubation, 8–10 nM (1.2–17.5 kBq) of [^18F]MeTz-PEG2-RM26 (8a) was added to the pretreated and non-treated wells, and the cells were incubated for 1 h at 37 °C. Thereafter, cells were detached using trypsin-EDTA (ethylenediaminetetraacetic acid), collected, and measured for their radioactivity content. The internalisation assay was done after 1 h of incubation as previously described (Varasteh et al. [2013b]).

[3] = Method: [^18F]MeTz-TCO-PEG2-RM26 (8a) (330 pmol, 1.2 MBq) was added and the tube was vortexed for 2 min. The tube was centrifuged for 20 s to separate the phases. Fractions of each phase were collected and the radioactivity content was measured.
[4] = in vivo; details: mouse, total radioactivity; for tissue uptake at 1 h / tissue uptake at 2 h / tissue to tissue ratio at 1 h / tissue to tissue ratio at 2 h: Balb/c nu/nu, 48 pmol; for tissue uptake dose at 0.5 h / tissue uptake at 0.5 h: NMRI; for tissue uptake at 0.5 h: NMRI mice, 30 min pi
Method: (§1) [^18F]MeTz-PEG2-RM26 (8a) (30 kBq, 40 pmol) was evaluated in NMRI mice to assess the biodistribution in normal organs. A group of NMRI mice (n = 3) was additionally co-injected with 5 nmol of NOTA-PEG2-RM26 to block GRPR. Mice were euthanised at 30 min post-injection (pi) and the organs of interest were collected, weighed, and measured for their radioactivity content. Further, Balb/c nu/nu mice (4 mice in each group) were used to evaluate the uptake in normal organs and the GRPR-expressing tumour model (PC-3). In short, 7 × 10^6 freshly harvested PC-3 cells were suspended in 100 µl sterile PBS and were implanted subcutaneously at the right hind leg of each mouse. […] [^18F]MeTz-PEG2-RM26 (8a) (120 kBq, 48 pmol) was injected and mice were euthanised at predetermined time points of 1 and 2 h pi. An additional group was co-injected with 5 nmol of NOTA-PEG2-RM26 to block GRPR and was euthanized at 2 h pi. The collected organs were weighed and the radioactivity content was measured in each organ.

[5] = system: GRPR-expressing PC-3 xenografts; test: in vivo; details: PC-3 xenografted Balb/c nu/nu mice, 2 h pi, blocked: co-injected with 5 nmol NOTA-PEG2-RM26, mean ± SD, n = 4
Method: as §1

[6] = system: NMRI mice; test: in vivo
Method: as §1

[7] = NMRI mice, 30 min pi, 40 pmol (30 kBq), non-blocked, mean ± SD, n = 3–4

T2 sequence (P30550 whole entry): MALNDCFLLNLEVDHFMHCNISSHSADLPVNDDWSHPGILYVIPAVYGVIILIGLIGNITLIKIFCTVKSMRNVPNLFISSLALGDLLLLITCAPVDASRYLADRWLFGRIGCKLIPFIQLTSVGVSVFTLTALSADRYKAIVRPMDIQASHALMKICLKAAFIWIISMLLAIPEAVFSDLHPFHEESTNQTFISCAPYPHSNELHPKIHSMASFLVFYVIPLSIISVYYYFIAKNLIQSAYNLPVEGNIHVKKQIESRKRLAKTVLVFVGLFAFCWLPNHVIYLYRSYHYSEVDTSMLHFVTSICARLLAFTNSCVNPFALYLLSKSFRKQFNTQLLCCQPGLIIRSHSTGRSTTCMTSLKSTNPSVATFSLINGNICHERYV
T1 sequence (P30550 whole entry): as above

For CC1=NNC(c2ccc(CNC(=O)c3ccc(F)nc3)cc2)=C2CCC[C@H](OC(=O)NCCOCCOCCC(=O)N[C@H](Cc3ccccc3)C(=O)N[C@@H](CCC(N)=O)C(=O)N[C@@H](Cc3c[nH]c4ccccc34)C(=O)N[C@@H](C)C(=O)N[C@H](C(=O)NCC(=O)N[C@@H](Cc3c[nH]cn3)C(=O)N[C@@H](CC(C)C)[C@@H](O)CC(=O)N[C@@H](CC(C)C)C(N)=O)C(C)C)CCC12 (stereo partly drawn) [8b], which “decrease in binding affinity versus Ga-NOTA-PEG2-RM26 (IC50 ratio)” value [1] is on record?
Its value is 6.8 fold.

With CC1=NNC(c2ccc(CNC(=O)c3ccc(F)nc3)cc2)=C2CCC[C@H](OC(=O)NCCOCCOCCC(=O)N[C@H](Cc3ccccc3)C(=O)N[C@@H](CCC(N)=O)C(=O)N[C@@H](Cc3c[nH]c4ccccc34)C(=O)N[C@@H](C)C(=O)N[C@H](C(=O)NCC(=O)N[C@@H](Cc3c[nH]cn3)C(=O)N[C@@H](CC(C)C)[C@@H](O)CC(=O)N[C@@H](CC(C)C)C(N)=O)C(C)C)CCC12 (stereo partly drawn) [8a] as the compound, how does the “activity uptake upon target saturation (GRPR specificity)” value [2] read?
Its value is “statistically significant reduction of activity uptake upon target saturation”.

What about the logP [3] of the same compound?
Its logP is 1.6 ± 0.2.

What about the tissue uptake at 1 h ([4]; blood) of the same compound?
Its tissue uptake at 1 h is 2.5 ± 0.4 %ID/g.

And the tissue uptake at 2 h ([4]; blood)?
The tissue uptake at 2 h was 1.8 ± 0.6 %ID/g.

And the tissue uptake at 1 h ([4]; bone)?
Its tissue uptake at 1 h is 0.8 ± 0.2 %ID/g.

What about the tissue uptake at 2 h ([4]; bone) of the same compound?
Its tissue uptake at 2 h is 0.6 ± 0.04 %ID/g.

What about the tissue uptake at 1 h ([4]; kidneys) of the same compound?
The tissue uptake at 1 h was 2.4 ± 0.1 %ID/g.

And the tissue uptake at 2 h ([4]; kidneys)?
Its tissue uptake at 2 h is 1.9 ± 0.7 %ID/g.

What about the tissue uptake at 1 h ([4]; liver) of the same compound?
Its tissue uptake at 1 h is 12 ± 2 %ID/g.

And the tissue uptake at 2 h ([4]; liver)?
Its tissue uptake at 2 h is 7 ± 2 %ID/g.

What about the tissue uptake at 1 h ([4]; lungs) of the same compound?
The tissue uptake at 1 h was 1.3 ± 0.1 %ID/g.

What about the tissue uptake at 2 h ([4]; lungs) of the same compound?
The tissue uptake at 2 h was 1.5 ± 0.8 %ID/g.

What about the tissue uptake at 1 h ([4]; muscle) of the same compound?
The tissue uptake at 1 h was 0.33 ± 0.04 %ID/g.

And the tissue uptake at 2 h ([4]; muscle)?
The tissue uptake at 2 h was 0.3 ± 0.1 %ID/g.

What about the tissue uptake at 1 h ([4]; pancreas) of the same compound?
Its tissue uptake at 1 h is 16 ± 1 %ID/g.

What about the tissue uptake at 2 h ([4]; pancreas) of the same compound?
Its tissue uptake at 2 h is 17 ± 4 %ID/g.

What about the tissue uptake at 1 h ([4]; small intestine) of the same compound?
Its tissue uptake at 1 h is 6 ± 3 %ID/g.

And the tissue uptake at 2 h ([4]; small intestine)?
Its tissue uptake at 2 h is 4 ± 3 %ID/g.

What about the tissue uptake at 1 h ([4]; spleen) of the same compound?
Its tissue uptake at 1 h is 0.9 ± 0.2 %ID/g.

And the tissue uptake at 2 h ([4]; spleen)?
Its tissue uptake at 2 h is 0.8 ± 0.6 %ID/g.

And the tissue uptake at 1 h ([4]; tumour (PC-3 xenograft))?
The tissue uptake at 1 h was 2.4 ± 0.1 %ID/g.

And the tissue uptake at 2 h ([4]; tumour (PC-3 xenograft))?
The tissue uptake at 2 h was 2.7 ± 0.5 %ID/g.

What about the tissue to tissue ratio at 1 h ([4]; tumour / blood) of the same compound?
Its tissue to tissue ratio at 1 h is 0.97 ± 0.1.

What about the tissue to tissue ratio at 2 h ([4]; tumour / blood) of the same compound?
Its tissue to tissue ratio at 2 h is 1.5 ± 0.2.

What about the tissue to tissue ratio at 1 h ([4]; tumour / bone) of the same compound?
Its tissue to tissue ratio at 1 h is 3.2 ± 0.5.

What about the tissue to tissue ratio at 2 h ([4]; tumour / bone) of the same compound?
Its tissue to tissue ratio at 2 h is 5 ± 1.

What about the tissue to tissue ratio at 1 h ([4]; tumour / kidneys) of the same compound?
Its tissue to tissue ratio at 1 h is 0.99 ± 0.08.

And the tissue to tissue ratio at 2 h ([4]; tumour / kidneys)?
The tissue to tissue ratio at 2 h was 1.6 ± 0.6.

And the tissue to tissue ratio at 1 h ([4]; tumour / liver)?
Its tissue to tissue ratio at 1 h is 0.2 ± 0.02.

What about the tissue to tissue ratio at 2 h ([4]; tumour / liver) of the same compound?
Its tissue to tissue ratio at 2 h is 0.4 ± 0.1.

And the tissue to tissue ratio at 1 h ([4]; tumour / lungs)?
Its tissue to tissue ratio at 1 h is 1.9 ± 0.1.

And the tissue to tissue ratio at 2 h ([4]; tumour / lungs)?
Its tissue to tissue ratio at 2 h is 2.2 ± 1.

And the tissue to tissue ratio at 1 h ([4]; tumour / muscle)?
Its tissue to tissue ratio at 1 h is 7.4 ± 0.7.

What about the tissue to tissue ratio at 2 h ([4]; tumour / muscle) of the same compound?
The tissue to tissue ratio at 2 h was 12 ± 4.

What about the tissue to tissue ratio at 1 h ([4]; tumour / pancreas) of the same compound?
Its tissue to tissue ratio at 1 h is 0.15 ± 0.02.

And the tissue to tissue ratio at 2 h ([4]; tumour / pancreas)?
The tissue to tissue ratio at 2 h was 0.17 ± 0.05.

What about the tissue to tissue ratio at 1 h ([4]; tumour / small intestine) of the same compound?
Its tissue to tissue ratio at 1 h is 0.5 ± 0.2.

What about the tissue to tissue ratio at 2 h ([4]; tumour / small intestine) of the same compound?
The tissue to tissue ratio at 2 h was 0.7 ± 0.3.

And the tissue to tissue ratio at 1 h ([4]; tumour / spleen)?
Its tissue to tissue ratio at 1 h is 2.6 ± 0.5.

And the tissue to tissue ratio at 2 h ([4]; tumour / spleen)?
Its tissue to tissue ratio at 2 h is 4 ± 2.

And the tissue uptake at 1 h ([4]; tumour)?
Its tissue uptake at 1 h is 2.4 ± 0.1 %ID/g.

What about the tissue uptake dose at 0.5 h ([4]; GI tract with content (whole intestine), 40 pmol) of the same compound?
The tissue uptake dose at 0.5 h was 38 ± 4 %ID.

And the tissue uptake dose at 0.5 h ([4]; GI tract with content)?
Its tissue uptake dose at 0.5 h is 32 ± 4 %ID.

What about the tissue uptake at 0.5 h ([4]; blood, 40 pmol, activity uptake in blood, 40 pmol (30 kBq), non-blocked, mean ± SD, n = 3–4) of the same compound?
The tissue uptake at 0.5 h was 5 ± 1 %ID/g.

What about the tissue uptake at 0.5 h ([4]; blood, activity uptake in blood, 40 pmol, blocked: co-injected with 5 nmol NOTA-PEG2-RM26, mean ± SD, n = 3) of the same compound?
The tissue uptake at 0.5 h was 4 ± 1 %ID/g.

And the tissue uptake at 0.5 h ([4]; bone, 40 pmol, activity uptake in bone, 40 pmol (30 kBq), non-blocked, mean ± SD, n = 3–4)?
The tissue uptake at 0.5 h was 0.8 ± 0.1 %ID/g.

And the tissue uptake at 0.5 h ([4]; bone, activity uptake in bone, 40 pmol, blocked: co-injected with 5 nmol NOTA-PEG2-RM26, mean ± SD, n = 3)?
Its tissue uptake at 0.5 h is 0.7 ± 0.1 %ID/g.

And the tissue uptake at 0.5 h ([4]; kidneys, activity uptake in kidneys, 40 pmol, blocked: co-injected with 5 nmol NOTA-PEG2-RM26, mean ± SD, n = 3)?
Its tissue uptake at 0.5 h is 3.1 ± 0.6 %ID/g.

And the tissue uptake at 0.5 h ([4]; liver, 40 pmol, activity uptake in liver, 40 pmol (30 kBq), non-blocked, mean ± SD, n = 3–4)?
Its tissue uptake at 0.5 h is 12 ± 0.7 %ID/g.

And the tissue uptake at 0.5 h ([4]; liver, activity uptake in liver, 40 pmol, blocked: co-injected with 5 nmol NOTA-PEG2-RM26, mean ± SD, n = 3)?
The tissue uptake at 0.5 h was 12 ± 2 %ID/g.

And the tissue uptake dose at 0.5 h ([4]; rest of the carcass, 40 pmol)?
The tissue uptake dose at 0.5 h was 15 ± 2 %ID.

And the tissue uptake dose at 0.5 h ([4]; rest of the carcass)?
Its tissue uptake dose at 0.5 h is 16 ± 4 %ID.

And the tissue uptake at 0.5 h ([4]; spleen, 40 pmol, activity uptake in spleen, 40 pmol (30 kBq), non-blocked, mean ± SD, n = 3–4)?
Its tissue uptake at 0.5 h is 1.4 ± 0.1 %ID/g.

What about the tissue uptake at 0.5 h ([4]; spleen, activity uptake in spleen, 40 pmol, blocked: co-injected with 5 nmol NOTA-PEG2-RM26, mean ± SD, n = 3) of the same compound?
Its tissue uptake at 0.5 h is 0.9 ± 0.2 %ID/g.

And the tissue uptake dose at 0.5 h ([4]; whole body, 40 pmol)?
Its tissue uptake dose at 0.5 h is 84 ± 7 %ID.

And the “activity uptake in pancreas” value [5]?
The value was 4 ± 1 %IA/g.

And the “activity uptake in bone” value [6, 7]?
The value was 0.8 ± 0.1 %IA/g.

What about the “activity uptake in liver” value [6, 7] of the same compound?
Its value is 12.0 ± 0.7 %IA/g.

And the “in vivo defluorination (stability of the fluorine-carbon bond)” value ([6]; judged from bone uptake in the biological evaluation in mice)?
Its value is “no significant signs of in vivo defluorination”.
